ChEMBL document CHEMBL4732231, “Combretastatin A-4 sulfur-containing heterocyclic derivatives: Synthesis, antiproliferative activities and molecular docking studies” (Eur J Med Chem, 2021)
Calls of active or inactive are those of the source. The rule behind the calls is not given here.

Tests used:
RL [1] = experiment: Induction of cell cycle arrest in human RL cells assessed as increase in accumulation in subG0/G1 phase at 10 nM incubated for 24 hrs by PI staining based flow cytometry analysis (reference value: 4.5 %); type: functional
A2780 = experiment: Antiproliferative activity against human A2780 cells assessed as reduction in cell viability incubated for 72 hrs by MTT assay; type: functional, cell-based; details: A2780, 72 h
MES-SA/Dx5 = experiment: Antiproliferative activity against multidrug-resistant human MES-SA/Dx5 cells assessed as reduction in cell viability incubated for 72 hrs by prestoblue dye based assay; type: functional; details: MES-SA/Dx5, 72 h
RL [2] = experiment: Induction of cell death in human RL cells assessed as cell gating level at 1 to 10 nM measured upto 48 hrs by PI staining based flow cytometry analysis (reference value: 80 to 85 %); type: functional; details: dose 1-10 nM, time hrs <=48
RL [3] = experiment: Induction of cell cycle arrest in human RL cells assessed as increase in accumulation in subG0/G1 phase at 10 nM incubated for 48 hrs by PI staining based flow cytometry analysis (reference value: 8 %); type: functional
MIA PaCa-2 = experiment: Antiproliferative activity against human MIA PaCa-2 cells assessed as reduction in cell viability incubated for 72 hrs by MTT assay; type: functional, cell-based; details: MIA PaCa-2, 72 h
RL [4] = experiment: Antiproliferative activity against human RL cells assessed as reduction in cell viability incubated for 72 hrs by MTT assay; type: functional, cell-based
RL [5] = experiment: Induction of cell cycle arrest in human RL cells assessed as increase in accumulation in subG0/G1 phase at 1 nM incubated for 48 hrs by PI staining based flow cytometry analysis (reference value: 8 %); type: functional
Tubulin = experiment: Inhibition of tubulin polymerization in human HeLa cells assessed as dynamic tyrosinated microtubules content by incubated for 2 hrs by immunofluorescence staining based assay; type: cell-based
RL [6] = experiment: Induction of cell cycle arrest in human RL cells assessed as effect on cell cycle distribution at 1 nM incubated for 48 hrs by PI staining based flow cytometry analysis (reference value: 8 %); type: functional
RL [7] = experiment: Induction of cell cycle arrest in human RL cells assessed as increase in accumulation in G2/M phase at 10 nM incubated for 24 hrs by PI staining based flow cytometry analysis (reference value: 23.3 %); type: functional
Tubulin (Homo sapiens) [8] = biological target: T1, Tubulin (Homo sapiens) (UniProt P68371+Q9H4B7+P0DPH7+P68366+Q13509+Q71U36+P04350+Q3ZCM7+P07437+P68363+Q9BQE3+Q6PEY2+Q13885+Q9BVA1+Q9BUF5); experiment: Inhibition of tubulin polymerization in human HeLa cells assessed as dynamic tyrosinated microtubules content at 14 uM by incubated for 2 hrs by immunofluorescence staining based assay; type: cell-based
Tubulin (Homo sapiens) [9] = biological target: T1, Tubulin (Homo sapiens); experiment: Inhibition of tubulin polymerization in human HeLa cells assessed as dynamic tyrosinated microtubules content at 1 uM by incubated for 2 hrs by immunofluorescence staining based assay; type: cell-based
Tubulin (Homo sapiens) [10] = biological target: T1, Tubulin (Homo sapiens); experiment: Inhibition of tubulin polymerization in human HeLa cells assessed as dynamic tyrosinated microtubules content at 2 uM by incubated for 2 hrs by immunofluorescence staining based assay; type: cell-based

Compound	IC50 (A2780) [nM]	IC50 (MES-SA/Dx5) [nM]	IC50 (MIA PaCa-2) [nM]	IC50 (RL [4]) [nM]	EC50 (Tubulin) [nM]	further results
COc1ccc(/C=C\c2cc(OC)c(OC)c(OC)c2)cc1O [COMBRETASTATIN A4]	2.5	3	2.1	1.4		Activity (RL [1]): 19.3%; Activity (RL [2]): 45%; Activity (RL [3]): 34.9%; Activity (RL [5]): 30.1%
COc1cc(/C=C\c2cc3cc(O)ccc3s2)cc(OC)c1OC					717	
COc1cc2c(c(OC)c1OC)-c1ccc(OC)c(=O)cc1[C@@H](NC(C)=O)CC2 [COLCHICINE]	14	757	6.1	4.4		
COc1csc(/C=C\c2cc(OC)c(OC)c(OC)c2)c1	13	27	14	11		Activity (RL [1]): 15.6%; Activity (RL [2]): 45%; Activity (RL [3]): 23.4%; Activity (RL [6]): inactive; Activity (RL [7]): 48.8%
COc1cc(/C=C\c2cc3cc(F)ccc3s2)cc(OC)c1OC	200		200	38	523	
COc1cc(/C=C\c2cc3ccccc3s2)cc(OC)c1OC	7.9	19	7.8	7.6		
COc1cc(/C=C\c2sc3ccccc3c2C)cc(OC)c1OC	360		120	61	555	
COc1cc(C(=O)C(=O)c2cc3ccccc3s2)cc(OC)c1OC						inhibition (Tubulin (Homo sapiens) [8]): 35%
C=C(c1cc(OC)c(OC)c(OC)c1)c1cc2ccccc2s1		150				
COc1ccsc1/C=C\c1cc(OC)c(OC)c(OC)c1	> 1000		> 1000	> 1000	> 10000	
COc1ccc2sc(/C=C\c3cc(OC)c(OC)c(OC)c3)cc2c1						inhibition (Tubulin (Homo sapiens) [9]): 14%; inhibition (Tubulin (Homo sapiens) [10]): 62%
COc1cc(/C=C\c2csc3ccccc23)cc(OC)c1OC		288				
COc1ccc(/C=C\c2cc(OC)c(OC)c(OC)c2)s1		75				
